According to ChEMBL document CHEMBL4052645, “Discovery of potent and efficacious pyrrolopyridazines as dual JAK1/3 inhibitors” (Bioorg Med Chem Lett, 2017):

Columns and labels:
[1] = target: Mitogen-activated protein kinase 1 (Homo sapiens) (UniProt P28482); test: Inhibition of wild-type human full length ERK2 (M1 to S360 residues) expressed in bacterial expression system assessed as residual activity at 50 nM by Kinomescan method relative to control
[2] = target: Cyclin-dependent kinase 11B (Homo sapiens) (UniProt P21127); test: Inhibition of wild-type human partial length CDK11 (M1 to N360 residues) expressed in bacterial expression system assessed as residual activity at 50 nM by Kinomescan method relative to control
[3] = target: Angiopoietin-1 receptor (Homo sapiens) (UniProt Q02763); test: Inhibition of wild-type human partial length TIE2 (N804 to T1112 residues) expressed in bacterial expression system assessed as residual activity at 50 nM by Kinomescan method relative to control
Sequence of Angiopoietin-1 receptor (Homo sapiens) (Q02763 whole entry, the tested form may be a part): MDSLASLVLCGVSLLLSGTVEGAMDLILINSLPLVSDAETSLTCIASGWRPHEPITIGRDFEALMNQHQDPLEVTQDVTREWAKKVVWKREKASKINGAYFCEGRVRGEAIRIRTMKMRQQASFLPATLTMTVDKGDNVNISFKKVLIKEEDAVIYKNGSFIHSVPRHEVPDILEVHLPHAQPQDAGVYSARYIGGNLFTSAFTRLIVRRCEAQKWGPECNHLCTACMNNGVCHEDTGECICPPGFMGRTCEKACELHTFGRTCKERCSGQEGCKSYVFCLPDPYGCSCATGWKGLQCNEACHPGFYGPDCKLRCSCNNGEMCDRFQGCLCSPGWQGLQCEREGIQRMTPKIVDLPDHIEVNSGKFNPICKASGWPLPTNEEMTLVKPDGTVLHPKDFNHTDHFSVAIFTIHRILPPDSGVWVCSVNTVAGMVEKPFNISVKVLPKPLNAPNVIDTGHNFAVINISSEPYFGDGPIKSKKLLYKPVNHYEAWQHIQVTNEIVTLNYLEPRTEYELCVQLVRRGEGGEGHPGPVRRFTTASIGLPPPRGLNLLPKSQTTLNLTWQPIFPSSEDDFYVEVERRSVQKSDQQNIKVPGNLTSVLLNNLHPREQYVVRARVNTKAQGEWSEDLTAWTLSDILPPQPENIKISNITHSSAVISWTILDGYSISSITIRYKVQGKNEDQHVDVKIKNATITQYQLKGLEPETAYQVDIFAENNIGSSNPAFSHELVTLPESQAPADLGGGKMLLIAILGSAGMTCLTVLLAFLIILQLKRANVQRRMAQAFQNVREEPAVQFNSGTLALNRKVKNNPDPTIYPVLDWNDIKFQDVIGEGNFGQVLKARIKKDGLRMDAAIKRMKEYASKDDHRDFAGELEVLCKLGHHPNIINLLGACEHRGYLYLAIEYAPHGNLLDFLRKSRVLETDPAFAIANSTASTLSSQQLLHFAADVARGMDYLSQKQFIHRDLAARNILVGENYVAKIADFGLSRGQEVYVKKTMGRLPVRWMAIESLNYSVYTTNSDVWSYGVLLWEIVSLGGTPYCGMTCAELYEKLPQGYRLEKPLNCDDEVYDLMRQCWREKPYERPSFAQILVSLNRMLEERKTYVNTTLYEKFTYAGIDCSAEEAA

[4] = target: RAC-alpha serine/threonine-protein kinase (Homo sapiens) (UniProt P31749); test: Inhibition of wild-type human partial length AKT1 expressed in bacterial expression system assessed as residual activity at 50 nM by Kinomescan method relative to control
Sequence of RAC-alpha serine/threonine-protein kinase (Homo sapiens) (P31749 whole entry, the tested form may be a part, canonical isoform): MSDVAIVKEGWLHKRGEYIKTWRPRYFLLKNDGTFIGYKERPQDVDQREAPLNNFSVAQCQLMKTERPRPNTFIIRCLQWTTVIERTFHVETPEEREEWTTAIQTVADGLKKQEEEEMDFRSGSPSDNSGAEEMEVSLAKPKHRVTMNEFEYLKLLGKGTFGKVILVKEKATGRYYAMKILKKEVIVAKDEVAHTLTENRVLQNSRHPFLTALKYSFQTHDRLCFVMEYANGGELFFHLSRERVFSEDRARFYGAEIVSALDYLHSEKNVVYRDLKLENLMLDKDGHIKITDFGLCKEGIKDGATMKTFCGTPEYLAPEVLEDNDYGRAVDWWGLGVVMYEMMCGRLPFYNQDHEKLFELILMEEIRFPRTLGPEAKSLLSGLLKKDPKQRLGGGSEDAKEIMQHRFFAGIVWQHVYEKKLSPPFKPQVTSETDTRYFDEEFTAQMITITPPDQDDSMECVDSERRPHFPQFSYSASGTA

[5] = tested on: Phosphatidylinositol 4,5-bisphosphate 3-kinase catalytic subunit alpha isoform (Homo sapiens), P42336 [I800L]; test: Inhibition of human partial length PI3KCA I800L mutant (R108 to N1068 residues) expressed in mammalian expression system assessed as residual activity at 50 nM by Kinomescan method relative to control
Sequence of Phosphatidylinositol 4,5-bisphosphate 3-kinase catalytic subunit alpha isoform (Homo sapiens), P42336 [I800L] (P42336 whole entry I800L, the tested form may be a part, canonical isoform): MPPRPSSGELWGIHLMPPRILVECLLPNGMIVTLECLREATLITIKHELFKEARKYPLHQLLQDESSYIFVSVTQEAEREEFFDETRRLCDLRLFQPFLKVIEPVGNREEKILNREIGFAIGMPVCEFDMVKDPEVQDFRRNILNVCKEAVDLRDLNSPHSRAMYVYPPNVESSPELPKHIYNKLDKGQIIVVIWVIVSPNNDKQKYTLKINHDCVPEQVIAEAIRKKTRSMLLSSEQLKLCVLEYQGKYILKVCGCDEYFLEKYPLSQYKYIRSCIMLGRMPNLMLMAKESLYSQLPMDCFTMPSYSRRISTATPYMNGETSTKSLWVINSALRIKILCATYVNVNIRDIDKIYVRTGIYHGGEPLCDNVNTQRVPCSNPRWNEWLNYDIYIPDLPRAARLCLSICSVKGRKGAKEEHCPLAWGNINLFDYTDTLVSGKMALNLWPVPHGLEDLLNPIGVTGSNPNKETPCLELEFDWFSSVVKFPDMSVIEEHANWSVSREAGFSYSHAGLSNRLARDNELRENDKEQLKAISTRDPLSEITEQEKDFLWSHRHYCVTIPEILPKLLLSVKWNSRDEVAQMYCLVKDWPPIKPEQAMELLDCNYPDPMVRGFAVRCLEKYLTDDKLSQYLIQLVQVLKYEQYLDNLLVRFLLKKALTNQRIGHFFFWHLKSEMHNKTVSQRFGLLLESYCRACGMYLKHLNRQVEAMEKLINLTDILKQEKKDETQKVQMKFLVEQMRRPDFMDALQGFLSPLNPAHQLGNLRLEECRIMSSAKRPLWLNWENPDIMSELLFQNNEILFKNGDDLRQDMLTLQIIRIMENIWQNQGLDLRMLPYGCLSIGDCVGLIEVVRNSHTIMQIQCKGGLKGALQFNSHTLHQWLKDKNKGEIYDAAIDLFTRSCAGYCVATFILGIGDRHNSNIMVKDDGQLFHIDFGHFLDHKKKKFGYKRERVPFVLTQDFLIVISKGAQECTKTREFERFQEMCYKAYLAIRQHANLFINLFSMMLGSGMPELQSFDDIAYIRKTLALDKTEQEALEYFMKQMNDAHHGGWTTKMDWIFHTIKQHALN

[6] = target: 5'-AMP-activated protein kinase catalytic subunit alpha-2 (Homo sapiens) (UniProt P54646); test: Inhibition of wild-type human partial length AMPK alpha2 (M1 to E306 residues) expressed in bacterial expression system assessed as residual activity at 50 nM by Kinomescan method relative to control
[7] = target: Mitogen-activated protein kinase 15 (Homo sapiens) (UniProt Q8TD08); test: Inhibition of wild-type human partial length ERK7 (M1 to P437 residues) expressed in bacterial expression system assessed as residual activity at 50 nM by Kinomescan method relative to control
[8] = target: Mitogen-activated protein kinase kinase kinase 11 (Homo sapiens) (UniProt Q16584); test: Inhibition of wild-type human partial length MLK3 (I77 to W399 residues) expressed in bacterial expression system assessed as residual activity at 50 nM by Kinomescan method relative to control
Sequence of Mitogen-activated protein kinase kinase kinase 11 (Homo sapiens) (Q16584 whole entry, looked up, the tested form may be a part): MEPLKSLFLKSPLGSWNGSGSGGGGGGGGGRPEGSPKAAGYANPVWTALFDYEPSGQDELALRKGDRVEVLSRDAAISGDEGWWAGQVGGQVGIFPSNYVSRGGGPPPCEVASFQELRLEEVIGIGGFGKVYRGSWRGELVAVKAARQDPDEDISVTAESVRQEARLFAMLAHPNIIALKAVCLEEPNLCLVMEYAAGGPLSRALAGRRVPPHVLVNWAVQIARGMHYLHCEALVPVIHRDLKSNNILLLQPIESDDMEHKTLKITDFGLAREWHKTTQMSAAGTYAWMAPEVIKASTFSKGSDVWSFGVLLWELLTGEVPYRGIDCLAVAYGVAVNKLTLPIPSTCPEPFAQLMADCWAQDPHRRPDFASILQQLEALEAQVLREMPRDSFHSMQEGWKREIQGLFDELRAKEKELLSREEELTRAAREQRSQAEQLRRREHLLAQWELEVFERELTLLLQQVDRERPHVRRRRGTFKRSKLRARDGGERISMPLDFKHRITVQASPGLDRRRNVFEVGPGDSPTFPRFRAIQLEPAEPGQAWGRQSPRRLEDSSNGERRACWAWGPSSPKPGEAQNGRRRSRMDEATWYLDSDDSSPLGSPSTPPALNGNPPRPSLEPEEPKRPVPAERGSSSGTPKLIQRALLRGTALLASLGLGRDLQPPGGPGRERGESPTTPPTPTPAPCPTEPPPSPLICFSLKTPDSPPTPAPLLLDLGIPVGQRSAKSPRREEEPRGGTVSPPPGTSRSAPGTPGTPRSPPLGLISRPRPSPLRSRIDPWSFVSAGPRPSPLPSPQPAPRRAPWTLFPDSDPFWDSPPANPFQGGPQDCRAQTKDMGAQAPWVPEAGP

[9] = target: Myosin light chain kinase (Homo sapiens) (UniProt Q32MK0); test: Inhibition of wild-type human partial length CAMLCK (D488 to K800 residues) expressed in bacterial expression system assessed as residual activity at 50 nM by Kinomescan method relative to control
[10] = target: Serine/threonine-protein kinase PknB (Mycobacterium tuberculosis) (UniProt P9WI81); test: Inhibition of wild-type Mycobacterium tuberculosis partial length PKNB (M1 to G279 residues) expressed in mammalian expression system assessed as residual activity at 50 nM by Kinomescan method relative to control
[11] = target: Mitogen-activated protein kinase kinase kinase 3 (Homo sapiens) (UniProt Q99759); test: Inhibition of wild-type human partial length MAP3K3 (E320 to Y626 residues) expressed in mammalian expression system assessed as residual activity at 50 nM by Kinomescan method relative to control
[12] = target: Serine/threonine-protein kinase 26 (Homo sapiens) (UniProt Q9P289); test: Inhibition of full lengthhuman MST4 (M1 to P416 residues) expressed in mammalian expression system assessed as residual activity at 50 nM by KINOMEscan assay relative to control
[13] = target: Mitogen-activated protein kinase kinase kinase 7 (Homo sapiens) (UniProt O43318); test: Inhibition of wild-type human partial length TAK1 (M1 to Q303 residues) expressed in mammalian expression system assessed as residual activity at 50 nM by Kinomescan method relative to control
[14] = target: Tyrosine-protein kinase SYK (Homo sapiens) (UniProt P43405); test: Inhibition of wild-type human partial length SYK (D354 to N635 residues) expressed in bacterial expression system assessed as residual activity at 50 nM by Kinomescan method relative to control
[15] = target: Tyrosine-protein kinase JAK1 (Homo sapiens, UniProt P23458); test: Inhibition of human JAK1 (V856 to K1154 residues) expressed in bacterial expression system assessed as residual activity at 50 nM by KINOMEscan assay relative to control
[16] = target: G protein-coupled receptor kinase 4 (Homo sapiens) (UniProt P32298); test: Inhibition of wild-type human full length GPRK4 (M1 to C578 residues) expressed in bacterial expression system assessed as residual activity at 50 nM by Kinomescan method relative to control
Sequence of G protein-coupled receptor kinase 4 (Homo sapiens) (P32298 whole entry, looked up, the tested form may be a part): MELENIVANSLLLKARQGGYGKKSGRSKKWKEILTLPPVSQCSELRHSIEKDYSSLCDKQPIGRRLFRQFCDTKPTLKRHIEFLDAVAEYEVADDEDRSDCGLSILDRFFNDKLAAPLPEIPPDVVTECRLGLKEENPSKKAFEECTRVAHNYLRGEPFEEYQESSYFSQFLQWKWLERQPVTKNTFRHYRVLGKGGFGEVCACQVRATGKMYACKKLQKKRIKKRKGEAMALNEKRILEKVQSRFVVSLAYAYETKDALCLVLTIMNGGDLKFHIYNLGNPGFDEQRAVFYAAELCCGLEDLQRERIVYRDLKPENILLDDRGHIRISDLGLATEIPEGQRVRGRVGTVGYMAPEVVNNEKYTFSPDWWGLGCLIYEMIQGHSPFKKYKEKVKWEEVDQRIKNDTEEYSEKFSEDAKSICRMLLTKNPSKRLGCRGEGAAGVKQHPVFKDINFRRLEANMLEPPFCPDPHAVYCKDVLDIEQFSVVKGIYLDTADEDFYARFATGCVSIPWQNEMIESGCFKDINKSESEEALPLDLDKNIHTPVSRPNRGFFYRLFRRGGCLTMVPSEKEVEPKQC

[17] = target: Serine/threonine-protein kinase TAO3 (Homo sapiens) (UniProt Q9H2K8); test: Inhibition of wild-type human partial length TAO3 (M1 to T316 residues) expressed in mammalian expression system assessed as residual activity at 50 nM by Kinomescan method relative to control
[18] = target: Leukocyte tyrosine kinase receptor (Homo sapiens) (UniProt P29376); test: Inhibition of wild-type human partial length LTK (P422 to S744 residues) expressed in bacterial expression system assessed as residual activity at 50 nM by Kinomescan method relative to control
[19] = target: Phosphatidylinositol 4-phosphate 3-kinase C2 domain-containing subunit beta (Homo sapiens) (UniProt O00750); test: Inhibition of wild-type human partial length PI3KC2B (M1 to L1634 residues) expressed in mammalian expression system assessed as residual activity at 50 nM by Kinomescan method relative to control
[20] = target: NUAK family SNF1-like kinase 1 (Homo sapiens) (UniProt O60285); test: Inhibition of human NUAK1 (25 to I332 residues) expressed in bacterial expression system assessed as residual activity at 50 nM by KINOMEscan assay relative to control
[21] = tested on: Phosphatidylinositol 4,5-bisphosphate 3-kinase catalytic subunit alpha isoform (Homo sapiens), P42336 [Q546K]; test: Inhibition of human partial length PIK3CA Q546K mutant (R108 to N1068 residues) expressed in mammalian expression system assessed as residual activity at 50 nM by Kinomescan method relative to control
[22] = target: Cyclin-G-associated kinase (Homo sapiens) (UniProt O14976); test: Inhibition of wild-type human partial length GAK (G13 to Y338 residues) expressed in bacterial expression system assessed as residual activity at 50 nM by Kinomescan method relative to control
[23] = target: Cyclin-dependent kinase 17 (Homo sapiens) (UniProt Q00537); test: Inhibition of recombinant human full length PCTAIRE2 (M1 to F523 residues) assessed as residual activity at 50 nM by Kinomescan method relative to control
[24] = target: Serine/threonine-protein kinase TNNI3K (Homo sapiens) (UniProt Q59H18); test: Inhibition of wild-type human HH498 (M1 to S835 residues) expressed in bacterial expression system assessed as residual activity at 50 nM by Kinomescan method relative to control
Sequence of Serine/threonine-protein kinase TNNI3K (Homo sapiens) (Q59H18 whole entry, the tested form may be a part): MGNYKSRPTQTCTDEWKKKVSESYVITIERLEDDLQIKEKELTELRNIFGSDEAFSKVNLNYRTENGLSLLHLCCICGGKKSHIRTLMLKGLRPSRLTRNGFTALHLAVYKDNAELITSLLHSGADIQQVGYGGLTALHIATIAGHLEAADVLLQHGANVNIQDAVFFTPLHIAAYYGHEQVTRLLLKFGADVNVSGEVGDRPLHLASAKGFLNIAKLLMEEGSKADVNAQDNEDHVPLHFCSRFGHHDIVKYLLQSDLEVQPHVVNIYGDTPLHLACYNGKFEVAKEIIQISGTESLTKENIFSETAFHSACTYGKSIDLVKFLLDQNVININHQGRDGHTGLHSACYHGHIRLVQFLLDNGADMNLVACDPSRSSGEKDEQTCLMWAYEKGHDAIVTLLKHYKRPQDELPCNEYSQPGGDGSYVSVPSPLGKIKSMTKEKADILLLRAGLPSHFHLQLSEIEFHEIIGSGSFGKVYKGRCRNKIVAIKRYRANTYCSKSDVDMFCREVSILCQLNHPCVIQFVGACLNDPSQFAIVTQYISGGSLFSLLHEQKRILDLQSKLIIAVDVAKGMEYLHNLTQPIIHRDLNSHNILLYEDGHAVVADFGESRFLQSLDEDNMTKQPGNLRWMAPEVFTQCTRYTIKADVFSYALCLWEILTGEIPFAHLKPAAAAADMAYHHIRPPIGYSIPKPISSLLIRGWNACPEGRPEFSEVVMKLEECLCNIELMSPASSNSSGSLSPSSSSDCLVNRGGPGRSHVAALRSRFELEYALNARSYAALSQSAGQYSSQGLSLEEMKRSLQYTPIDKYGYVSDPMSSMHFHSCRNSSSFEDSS

[25] = target: Ribosomal protein S6 kinase alpha-3 (Homo sapiens) (UniProt P51812); test: Inhibition of wild-type human partial length N-terminal RSK2 kinase domain 1 (M1 to D394 residues) expressed in mammalian expression system assessed as residual activity at 50 nM by Kinomescan method relative to control

SMILES	Activity [1]	Activity [2]	Activity [3]	Activity [4]	Activity [5]	Activity [6]	Activity [7]	Activity [8]	Activity [9]	Activity [10]	Activity [11]	Activity [12]	Activity [13]	Activity [14]	Activity [15]	Activity [16]	Activity [17]	Activity [18]	Activity [19]	Activity [20]	other results
COc1ccc(-c2cc3c(N[C@@H]4CC[C@](C)(N)C4(C)C)c(C(N)=O)cnn3c2)cn1	100%	100%	100%	95%	100%	74%	100%	100%	100%	24%	71%	23%	73%	91%	9%	100%	78%	100%	100%	6%	Activity [21]: 100%; Activity [22]: 100%; Activity [23]: 100%; Activity [24]: 97%; Activity [25]: 74%
CC1(C)[C@H](Nc2c(C(N)=O)cnn3cc(-c4ccccc4)cc23)CC[C@]1(C)N	82%	99%	87%	79%	100%	38%	100%	64%	100%	17%	61%	12%	48%	82%	1.4%	64%	82%	100%	100%	2%	Activity [21]: 84%; Activity [22]: 91%; Activity [23]: 95%; Activity [24]: 83%; Activity [25]: 47%
